Patent publication US10131652B2, “Pyrimidinyloxy benzene derivatives as herbicides” (E. I. DU PONT DE NEMOURS AND COMPANY, priority 2014, dated 2018)
Read-outs that look alike come from different tables or passages of the source.

Legend:
Assay type in all cases: in vivo
[1] = system: chickweed (common chickweed, Stellaria media); assay: Test D postemergence plant response; conditions: Stellaria media, post-emergence
In short: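 Postemergence spray on plants 2–18 cm tall (1- to 4-leaf stage), grown in pots of peat/vermiculite medium. Plants were kept in a greenhouse for 13–15 days, then visually rated against untreated controls on a 0 (no effect) to 100 (complete control) scale.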

[2] = system: soybean (Glycine max); assay: Test D pre-/postemergence plant response; conditions: Glycine max; for plant injury at 16 g/ha: 16 g ai/ha; for plant injury at 31 g/ha: 31 g ai/ha; for plant injury at 62 g/ha: 62 g ai/ha; for plant injury at 125 g/ha: 125 g ai/ha
In short: (§1)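 Visual injury scoring (0–100) at 13 to 15 days in greenhouse. Preemergence sprays on seeded loam/sand; postemergence sprays on 1–4 leaf plants.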

[3] = system: waterhemp (common waterhemp, Amaranthus rudis); assay: Test D pre-/postemergence plant response; conditions: Amaranthus tuberculatus; for pest or weed control at 16 g/ha: 16 g ai/ha; for pest or weed control at 31 g/ha: 31 g ai/ha; for pest or weed control at 62 g/ha: 62 g ai/ha; for pest or weed control at 125 g/ha: 125 g ai/ha
In short: as §1

[4] = system: ragweed (common ragweed, Ambrosia elatior); assay: Test D pre-/postemergence plant response; conditions: Ambrosia artemisiifolia; for pest or weed control at 16 g/ha: 16 g ai/ha; for pest or weed control at 31 g/ha: 31 g ai/ha; for pest or weed control at 62 g/ha: 62 g ai/ha; for pest or weed control at 125 g/ha: 125 g ai/ha
In short: as §1

[5] = system: pigweed (Amaranthus retroflexus); assay: Test D pre-/postemergence plant response; conditions: Amaranthus retroflexus; for pest or weed control at 16 g/ha: 16 g ai/ha; for pest or weed control at 31 g/ha: 31 g ai/ha; for pest or weed control at 62 g/ha: 62 g ai/ha; for pest or weed control at 125 g/ha: 125 g ai/ha
In short: as §1

[6] = system: oilseed rape (Brassica napus); assay: Test D pre-/postemergence plant response; conditions: Brassica napus; for plant injury at 16 g/ha: 16 g ai/ha; for plant injury at 31 g/ha: 31 g ai/ha; for plant injury at 62 g/ha: 62 g ai/ha; for plant injury at 125 g/ha: 125 g ai/ha
In short: as §1

[7] = system: yellow nutsedge (Cyperus esculentus); assay: Test D pre-/postemergence plant response; conditions: Cyperus, post-emergence, Postemergence, scale 0 to 100 (0 no effect, 100 complete control), read-out: Nutsedge, Yellow plant response rating
In short: as §1

[8] = post-emergence, Postemergence, scale 0 to 100 (0 no effect, 100 complete control), read-out: Soybean plant response rating
[9] = post-emergence, Postemergence, scale 0 to 100, 0 no effect, 100 complete control, read-out: Plant response rating, Soybean
[10] = pre-emergence, Preemergence, scale 0 to 100 (0 no effect, 100 complete control), read-out: Plant response rating, Soybean
[11] = post-emergence, Postemergence, scale 0 to 100 (0 no effect, 100 complete control), read-out: Waterhemp plant response rating
[12] = post-emergence, Postemergence, scale 0 to 100, 0 no effect, 100 complete control, read-out: Plant response rating, Waterhemp
[13] = pre-emergence, Preemergence, scale 0 to 100 (0 no effect, 100 complete control), read-out: Plant response rating, Waterhemp
[14] = post-emergence, Postemergence, scale 0 to 100 (0 no effect, 100 complete control), read-out: Ragweed plant response rating
[15] = post-emergence, Postemergence, scale 0 to 100, 0 no effect, 100 complete control, read-out: Plant response rating, Ragweed
[16] = pre-emergence, Preemergence, scale 0 to 100 (0 no effect, 100 complete control), read-out: Plant response rating, Ragweed
[17] = post-emergence, Postemergence, scale 0 to 100 (0 no effect, 100 complete control), read-out: Pigweed plant response rating
[18] = post-emergence, Postemergence, scale 0 to 100, 0 no effect, 100 complete control, read-out: Plant response rating, Pigweed
[19] = pre-emergence, Preemergence, scale 0 to 100 (0 no effect, 100 complete control), read-out: Plant response rating, Pigweed
[20] = post-emergence, Postemergence, scale 0 to 100 (0 no effect, 100 complete control), read-out: Oilseed Rape plant response rating
[21] = post-emergence, Postemergence, scale 0 to 100, 0 no effect, 100 complete control, read-out: Plant response rating, Oilseed Rape
[22] = pre-emergence, Preemergence, scale 0 to 100 (0 no effect, 100 complete control), read-out: Plant response rating, Oilseed Rape

FC(F)(F)c1cc(-c2ccccc2Oc2ncc(Cl)cn2)on1 [Compound 63, 5-chloro-2-[2-[3-(trifluoromethyl)-5-isoxazolyl]phenoxy]pyrimidine]
pest or weed control at 16 g/ha ([1]; 16 g ai/ha, scale 0 to 100 (0 no effect, 100 complete control), read-out: Chickweed plant response rating): 60%
pest or weed control at 31 g/ha ([1]; 31 g ai/ha, scale 0 to 100 (0 no effect, 100 complete control), read-out: Chickweed plant response rating): 65%
pest or weed control at 62 g/ha ([1]; 62 g ai/ha, scale 0 to 100, 0 no effect, 100 complete control, read-out: Plant response rating, Chickweed): 98%
pest or weed control at 125 g/ha ([1]; 125 g ai/ha, scale 0 to 100, 0 no effect, 100 complete control, read-out: Plant response rating, Chickweed): 100%
plant injury at 16 g/ha [2, 8]: 35%
plant injury at 31 g/ha [2, 8]: 45%
plant injury at 62 g/ha [2, 9]: 55%
plant injury at 125 g/ha [2, 9]: 98%
plant injury at 125 g/ha ([2]; pre-emergence, Preemergence, read-out: Plant response rating (scale 0 to 100), Soybean): 60%
plant injury at 16 g/ha [2, 10]: 5%
plant injury at 31 g/ha [2, 10]: 15%
plant injury at 62 g/ha [2, 10]: 45%
pest or weed control at 16 g/ha [3, 11]: 85%
pest or weed control at 31 g/ha [3, 11]: 85%
pest or weed control at 62 g/ha [3, 12]: 98%
pest or weed control at 125 g/ha [3, 12]: 98%
pest or weed control at 125 g/ha ([3]; pre-emergence, Preemergence, read-out: Plant response rating (scale 0 to 100), Waterhemp): 100%
pest or weed control at 16 g/ha [3, 13]: 90%
pest or weed control at 31 g/ha [3, 13]: 100%
pest or weed control at 62 g/ha [3, 13]: 100%
pest or weed control at 16 g/ha [4, 14]: 10%
pest or weed control at 31 g/ha [4, 14]: 40%
pest or weed control at 62 g/ha [4, 15]: 55%
pest or weed control at 125 g/ha [4, 15]: 55%
pest or weed control at 125 g/ha ([4]; pre-emergence, Preemergence, read-out: Plant response rating (scale 0 to 100), Ragweed): 70%
pest or weed control at 16 g/ha [4, 16]: 75%
pest or weed control at 31 g/ha [4, 16]: 20%
pest or weed control at 62 g/ha [4, 16]: 55%
pest or weed control at 16 g/ha [5, 17]: 85%
pest or weed control at 31 g/ha [5, 17]: 85%
pest or weed control at 62 g/ha [5, 18]: 90%
pest or weed control at 125 g/ha [5, 18]: 95%
pest or weed control at 125 g/ha ([5]; pre-emergence, Preemergence, read-out: Plant response rating (scale 0 to 100), Pigweed): 100%
pest or weed control at 16 g/ha [5, 19]: 95%
pest or weed control at 31 g/ha [5, 19]: 100%
pest or weed control at 62 g/ha [5, 19]: 100%
plant injury at 16 g/ha [6, 20]: 60%
plant injury at 31 g/ha [6, 20]: 90%
plant injury at 62 g/ha [6, 21]: 98%
plant injury at 125 g/ha [6, 21]: 100%
plant injury at 125 g/ha ([6]; pre-emergence, Preemergence, read-out: Plant response rating (scale 0 to 100), Oilseed Rape): 98%
plant injury at 16 g/ha [6, 22]: 70%
plant injury at 31 g/ha [6, 22]: 98%
plant injury at 62 g/ha [6, 22]: 98%
pest or weed control at 16 g/ha ([7]; 16 g ai/ha): 0%
pest or weed control at 31 g/ha ([7]; 31 g ai/ha): 0%
